Experimental data: patent US20090312521A1 (priority 2004, published 2009)
Converted amounts (≈) assume the structure as drawn. “Also recorded” adds a separate entry of the source. Non-standard residues stand in square brackets, D forms with d. Residues, ends and D or L forms follow the SMILES beside them. βAla = NCCC(=O)O

Legend:
[1] = system: Salmonella typhimurium Rb; conditions: murium Rb
Vibrio cholerae = assay: Additional antimicrobial test (MIC); assay type: cell-based; conditions: Gram −, BHI, 37 ° C.
Bacillus globigii = assay: Additional antimicrobial test (MIC); assay type: cell-based; conditions: Gram +, 37 ° C.
[2] = system: Salmonella typhimurium Rd1; conditions: Salmonella typhimurium Rd1, Gram −, NB, 37 ° C.
Pseudomonas auruginosa = assay: Additional antimicrobial test (MIC); assay type: cell-based
Salmonella typhimurium = conditions: murium
[3] = system: Methicillinresistant Staphylococcus aureus (MRSA); assay: Additional antimicrobial test (MIC); assay type: cell-based; conditions: Gram +, NB, 37 ° C.
[4] = system: Salmonella typhimurium Rc; conditions: Gram −, NB, 37 ° C.
[5] = system: Yersinia pseudotuberculosis; assay type: cell-based; conditions: Gram −, BHI, 35 ° C.
Bacillus anthracis = assay type: cell-based; conditions: Gram +, BHI, 37 ° C.
Yersinia pestis KIM5 = assay type: cell-based; conditions: Yersinia pestis KIM5, Gram −, BHI, 22 ° C.
Bacillus thuringiensis = assay: Additional antimicrobial test (MIC); assay type: cell-based; conditions: Gram +, BHI, 37 ° C.
[6] = system: Salmonella typhimurium Re; conditions: Gram −, NB, 37 ° C.
E. coli ATCC 11775 = assay type: cell-based; conditions: ATCC 11775, 24 h
Description: Lyophilized peptides were dissolved in NB to give a concentration of 400 μM and filtered using 0.22 μm filter discs (Millex GV, Durapore). An overnight culture in NB was adjusted to 5×10^6 CFU/mL and inoculated into the micro titer plate wells (10 μL) containing each 100 μL of a serial 2-fold dilution (200-0.4 μM) of the tested peptide in NB. Plates were incubated while gently shaking at 37 ° C. for 24 h. Next, 80 μL suspension of each well was transported into a flat-bottom 96-well plate (Costar). The absorbance was measured at 600 nm using a μQuant micro plate spectrophotometer (Bio-Tek Instruments). All peptides were measured in quadruplo. The peptide with sequence […] (see Otvos Jr, […]; Otvos, B. I.; Hoffmann, […].; Wade, […].; Bulet, P. Protein Sci. 2000, 9, 742) was used as negative control.

[7] = system: aminopeptidase and carboxypeptidase; assay: mammalian serum; conditions: up to four hour; cited from earlier work
mammalian serum = conditions: up to four hour period; cited from earlier work
[8] = aminopeptidase and carboxypeptidase cleavage; cited from earlier work
[9] = cited from earlier work
Gram-negative bacteria = conditions: glycosylated form; cited from earlier work

CC[C@H](C)[C@H](NC(=O)[C@@H]1CCCN1C(=O)[C@H](CCCNC(=N)N)NC(=O)[C@@H]1CCCN1C(=O)[C@H](Cc1c[nH]cn1)NC(=O)[C@H](CO)NC(=O)[C@@H](NC(=O)[C@@H]1CCCN1C(=O)[C@H](CCCNC(=N)N)NC(=O)[C@@H]1CCCN1C(=O)[C@@H](NC(=O)[C@H](Cc1ccc(O)cc1)NC(=O)[C@@H]1CCCN1C(=O)[C@H](CCCNC(=N)N)NC(=O)[C@@H]1CCCN1C(=O)[C@H](CCCCN)NC(=O)CCN)[C@@H](C)O)[C@@H](C)O)C(=O)N[C@@H](CCCNC(=N)N)C(=O)N[C@H](C(=O)O)C(C)C [Peptide 14, βAlaKPRP YTPRP TSHPR PIRV] (H-[βAla]KPRPYTPRPTSHPRPIRV-OH; N-terminus assumed)
MIC (E. coli O157: H7): 25 µM (≈ 55.7 µg/mL) | MIC [1]: 12.5 µM (≈ 27.8 µg/mL) | MIC (Vibrio cholerae): NI at ≦100 μM | MIC (Bacillus globigii): NI at ≦100 μM | MIC [2]: 12.5 µM (≈ 27.8 µg/mL) | MIC (Salmonella give): 100 µM (≈ 223 µg/mL) | MIC (Pseudomonas auruginosa): NI at ≦100 μM | MIC (Salmonella typhimurium): 50 µM (≈ 111 µg/mL) | MIC (Shigella sonnei): 100 µM (≈ 223 µg/mL) | MIC (Salmonella montevideo): 12.5 µM (≈ 27.8 µg/mL) | MIC [3]: NI at ≦100 μM | MIC (Klebsiella pneumoniae): 100 µM (≈ 223 µg/mL) | MIC [4]: 100 µM (≈ 223 µg/mL) | MIC [5]: NI at ≦100 μM | MIC (Bacillus anthracis): NI at ≦100 μM | MIC (Yersinia pestis KIM5): NI at ≦100 μM | MIC (Bacillus thuringiensis): NI at ≦100 μM | MIC (Salmonella panama): 25 µM (≈ 55.7 µg/mL) | MIC [6]: 3.38 µM (≈ 7.53 µg/mL) | MIC (Salmonella enteritidis): 12.5 µM (≈ 27.8 µg/mL) | MIC (E. coli ATCC 11775): 3.1 µM (≈ 6.9 µg/mL) | MIC (Salmonella infantis): 25 µM (≈ 55.7 µg/mL)

CC[C@H](C)[C@H](NC(=O)[C@@H]1CCCN1C(=O)[C@H](CCCNC(=N)N)NC(=O)[C@@H]1CCCN1C(=O)[C@H](Cc1c[nH]cn1)NC(=O)[C@H](CO)NC(=O)[C@@H](NC(=O)[C@@H]1CCCN1C(=O)[C@H](CCCNC(=N)N)NC(=O)[C@@H]1CCCN1C(=O)[C@@H](NC(=O)[C@H](Cc1ccc(O)cc1)NC(=O)[C@@H]1CCCN1C(=O)[C@H](CCCNC(=N)N)NC(=O)[C@@H]1CCCN1C(=O)[C@H](CCCCN)NC(=O)CN)[C@@H](C)O)[C@@H](C)O)C(=O)N[C@@H](CCCNC(=N)N)C(=O)N[C@H](C(=O)O)C(C)C [Peptide 4, GKPRP YTPRP TSHPR PIRV] (H-GKPRPYTPRPTSHPRPIRV-OH; N-terminus assumed)
MIC (E. coli O157: H7): 12.5 µM (≈ 27.7 µg/mL) | MIC [1]: 12.5 µM (≈ 27.7 µg/mL) | MIC (Vibrio cholerae): NI at ≦100 μM | MIC (Bacillus globigii): NI at ≦100 μM | MIC [2]: 12.5 µM (≈ 27.7 µg/mL) | MIC (Salmonella give): 25 µM (≈ 55.3 µg/mL) | MIC (Pseudomonas auruginosa): NI at ≦100 μM | MIC (Salmonella typhimurium): 12.5 µM (≈ 27.7 µg/mL) | MIC (Shigella sonnei): 100 µM (≈ 221 µg/mL) | MIC (Salmonella montevideo): 12.5 µM (≈ 27.7 µg/mL) | MIC [3]: NI at ≦100 μM | MIC (Klebsiella pneumoniae): 100 µM (≈ 221 µg/mL) | MIC [4]: 100 µM (≈ 221 µg/mL) | MIC [5]: NI at ≦100 μM | MIC (Bacillus anthracis): NI at ≦100 μM | MIC (Yersinia pestis KIM5): NI at ≦100 μM | MIC (Bacillus thuringiensis): NI at ≦100 μM | MIC (Salmonella panama): 12.5 µM (≈ 27.7 µg/mL) | MIC [6]: 3.38 µM (≈ 7.48 µg/mL) | MIC (Salmonella enteritidis): 12.5 µM (≈ 27.7 µg/mL) | MIC (E. coli ATCC 11775): 1.6 µM (≈ 3.54 µg/mL) | MIC (Salmonella infantis): 25 µM (≈ 55.3 µg/mL)

Gly-Lys-Pro-Arg-Pro-Tyr-Ser*-Pro-Arg-Pro-Thr-Ser-His-Pro-Arg-Pro-Ile-Arg-Val
fragment found [7]: metabolites lacking five amino terminal residues; also recorded: metabolites lacking two carboxy terminal residues | fragment found (mammalian serum): metabolite lacking five amino terminal residues; also recorded: metabolite lacking two carboxy terminal residues

Gly-Lys-Pro-Arg-Pro-Tyr-Ser*-Pro-Arg-Pro-Thr-Ser-His-Pro-Arg-Pro-Ile-Arg-Val [native, glycosylated peptide]
degradation in mammalian serum [8]: completely degraded within a four hour period | antibacterial activity when injected into mice [9]: no antibacterial activity | activity against Gram-negative bacteria (Gram-negative bacteria): moderately active | time needed to kill bacteria in vivo (Gram-negative bacteria): 24 h

CC[C@H](C)[C@H](NC(=O)[C@@H]1CCCN1C(=O)[C@H](CCCNC(=N)N)NC(=O)[C@@H]1CCCN1C(=O)[C@H](Cc1cnc[nH]1)NC(=O)[C@H](CO)NC(=O)[C@@H](NC(=O)[C@@H]1CCCN1C(=O)[C@H](CCCNC(=N)N)NC(=O)[C@@H]1CCCN1C(=O)[C@H](CO)NC(=O)[C@H](Cc1ccc(O)cc1)NC(=O)[C@@H]1CCCN1C(=O)[C@H](CCCNC(=N)N)NC(=O)[C@@H]1CCCN1C(=O)[C@H](CCCCN)NC(=O)CN)[C@@H](C)O)C(=O)N[C@@H](CCCNC(=N)N)C(=O)N[C@H](C(=O)O)C(C)C [Drosocin] (H-GKPRPYSPRPTSHPRPIRV-OH)
MIC (E. coli O157: H7): 25 µM (≈ 55 µg/mL) | MIC (Enterobacter aerogenes): 100 µM (≈ 220 µg/mL) | MIC [1]: 50 µM (≈ 110 µg/mL) | MIC (Salmonella give): 25 µM (≈ 55 µg/mL) | MIC (Salmonella typhimurium): 25 µM (≈ 55 µg/mL) | MIC (Shigella sonnei): 100 µM (≈ 220 µg/mL) | MIC (Salmonella montevideo): 50 µM (≈ 110 µg/mL) | MIC (Klebsiella pneumoniae): 100 µM (≈ 220 µg/mL) | MIC (Salmonella panama): 25 µM (≈ 55 µg/mL) | MIC (Erwinia chrysanthemi): 100 µM (≈ 220 µg/mL) | MIC (Salmonella enteritidis): 50 µM (≈ 110 µg/mL) | MIC (Salmonella infantis): 50 µM (≈ 110 µg/mL) | MIC (Erwinia herbicola): 12.5 µM (≈ 27.5 µg/mL)
